Values of other authors, collected in patent US6500833B1, “(+)-Hydroxyrisperidone compositions and methods” (priority 1998, dated 2002).

Conditions: condition associated with torsades de pointes

In the case of `Cc1nc2n(c(=O)c1CCN1CCC(c3noc4cc(F)ccc34)CC1)CCCC2` [risperidone, Risperidone], the “prolongation of QT interval” value is given as “implicated in a prolongation of QT interval”.
For `Cc1nc2n(c(=O)c1CCN1CCC(c3noc4cc(F)ccc34)CC1)CCCC2O` (racemic) [hydroxyrisperidone, 9-hydroxyrisperidone], the “prolongation of QT interval” value is given as “implicated in a prolongation of QT interval”.
